# Patent US4109000A, “5-Benzylpicolinic acid derivatives” (Nippon Shinyaku Co., Ltd., priority 1975, dated 1978)
# Read-outs that look alike come from different tables or passages of the source.
# Key:
# dopamine-β-hydroxylase = target: T1, dopamine-β-hydroxylase (Bos taurus, UniProt P15101); experiment: dopamine-β-hydroxylase inhibitory activity; format: biochemical
# T1 sequence (P15101 1-610): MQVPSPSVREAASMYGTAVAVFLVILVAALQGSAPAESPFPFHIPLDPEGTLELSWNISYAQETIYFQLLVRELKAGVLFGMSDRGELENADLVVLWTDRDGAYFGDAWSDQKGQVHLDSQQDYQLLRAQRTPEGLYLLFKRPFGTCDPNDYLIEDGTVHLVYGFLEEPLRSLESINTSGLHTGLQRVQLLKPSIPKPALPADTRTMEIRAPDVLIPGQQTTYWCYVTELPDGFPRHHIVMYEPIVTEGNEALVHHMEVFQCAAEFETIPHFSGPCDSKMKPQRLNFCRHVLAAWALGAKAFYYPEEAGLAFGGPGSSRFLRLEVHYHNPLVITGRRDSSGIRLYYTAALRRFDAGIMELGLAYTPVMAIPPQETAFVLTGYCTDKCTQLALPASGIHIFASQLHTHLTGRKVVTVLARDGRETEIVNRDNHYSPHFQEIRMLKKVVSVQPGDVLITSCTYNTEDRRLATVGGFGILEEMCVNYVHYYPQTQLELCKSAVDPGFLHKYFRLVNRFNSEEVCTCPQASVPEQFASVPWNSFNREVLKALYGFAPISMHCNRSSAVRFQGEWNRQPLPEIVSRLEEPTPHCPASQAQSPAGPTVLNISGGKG
# [1] = acute toxicity (LD50), intraperitoneal, ddY male mice; conditions: mouse, in vivo, ip, ddY male mice (6 weeks age)
# Procedure: (§1) The pharmacological action of the product of the present invention can be conventionally observed as follows: 50 mg/kg of a sample was administered orally to spontaneously hypertensive rats (male 20-40 weeks age) and percent decrease in blood pressure after 1, 2, 3 and 5 hours was determined, using the known fusaric acid as a reference. Acute toxicity of the compounds was determined by introperitoneal administration of the samples to ddY male mice (6 weeks age), followed by calculation of the values after observation for one week. The results are as follows:
# [2] = system: spontaneously hypertensive rats; experiment: percent decrease in blood pressure in spontaneously hypertensive rats, oral; format: in vivo, spontaneously hypertensive rats (male); conditions: for % Decrease in blood pressure, 1hr.: after 1 hr; for % Decrease in blood pressure, 2hrs.: after 2 hrs; for % Decrease in blood pressure, 3hrs.: after 3 hrs; for inhibition in vivo at 50 mg/kg: Rattus norvegicus, po, read-out: % Decrease in blood pressure, 5hrs.
# Procedure: as §1, with “week.” for “week. The results are as follows:”
# [3] = intraperitoneal, observation for one week (first table), read-out: LD50
# [4] = 50 mg/kg orally, spontaneously hypertensive rats (male 20-40 weeks)
# [5] = 50 mg/kg orally, spontaneously hypertensive rats (male 20-40 weeks), after 5 hrs
# [6] = observation for one week (second table), read-out: LD50 (i.p.)
SMILES,IC50 (dopamine-β-hydroxylase),"LD50 at 168 h [1, 3]","% Decrease in blood pressure, 1hr. [2, 4]","% Decrease in blood pressure, 2hrs. [2, 4]","% Decrease in blood pressure, 3hrs. [2, 4]","inhibition in vivo at 50 mg/kg [2, 5]","LD50 at 168 h [1, 6]",other results
"CCCCc1ccc(C(=O)O)nc1 [Fusaric acid, reference compound]",0.0837 µM,80 mg/kg,15.6%,21.3%,16.5%,–,–,inhibition in vivo at 50 mg/kg ([2]; 5 h): 21%
"O=C(O)c1ccc(Cc2ccc(Cl)cc2)cn1 [5-(4-Chlorobenzyl)-picolinic acid, 5-(4-Chlorobenzyl)picolinic acid]",–,120 mg/kg,26.4%,42.1%,48.6%,50.3%,–,–
"CCOC(=O)c1ccc(Cc2ccc(O)cc2)cn1 [Ethyl 5-(4-hydroxybenzyl)-picolinate, ethyl 5-(4-hydroxybenzyl)picolinate]",0.0276 µM,–,–,–,–,–,594 mg/kg,–
"COc1ccccc1Cc1ccc(C(=O)O)nc1 [5-(2-Methoxybenzyl)-picolinie acid, 5-(2-Methoxybenzyl)picolinic acid]",–,177 mg/kg,25.9%,26.9%,26.0%,25.5%,–,–
"O=C(O)c1ccc(Cc2ccc(O)c(O)c2)cn1 [5-(3,4-Dihydroxybenzyl)-picolinic Acid, 5-(3,4-dihydroxybenzyl)picolinic acid]",0.0359 µM,–,–,–,–,–,561 mg/kg,–
"COC(=O)c1ccc(Cc2ccc(O)cc2)cn1 [Methyl 5-(4-hydroxybenzyl)-picolinate, methyl 5-(4-hydroxybenzyl)-picolinate]",0.0288 µM,–,–,–,–,–,1000 mg/kg,–
"O=C(O)c1ccc(Cc2ccc(O)cc2)cn1 [5-(4-Hydroxybenzyl)-picolinic Acid, 5-(4-hydroxybenzyl)picolinic acid]",–,–,–,–,–,–,193 mg/kg,ID50 (dopamine-β-hydroxylase; dopamine-β-hydroxylase inhibition): 8.9 ng/mL
O=C(O)c1ccccn1 [Picolinic Acid],8.12 µM,–,–,–,–,–,–,–
"O=C(O)c1ccc(Cc2ccccc2)cn1 [5-Benzylpicolinic acid, 5-benzylpicolinic acid]",–,138 mg/kg,12.7%,19.0%,24.9%,29.5%,–,–
O=C(O)c1ccc(Cc2ccccc2O)cn1 [5-(2-Hydroxybenzyl)-picolinic Acid],0.0916 µM,–,–,–,–,–,354 mg/kg,–
"CCOC(=O)c1ccc(Cc2ccccc2)cn1.Cl [Ethyl 5-benzylpicolinate (Hydrochloride), ethyl 5-benzylpicolinate hydrochloride]",–,140 mg/kg,–,–,–,32.4%,–,–
"COc1ccc(Cc2ccc(C(=O)O)nc2)cc1 [5-(4-Methoxybenzyl)-picolinic acid, 5-(4-methoxybenzyl)picolinic acid]",–,132 mg/kg,24.8%,28.1%,23.4%,21.9%,–,–
COC(=O)c1ccc(Cc2ccccc2)cn1 [Methyl 5-benzylpicolinate],–,88 mg/kg,–,–,–,48.8%,–,–
"O=C(O)c1ccc(Cc2ccc([N+](=O)[O-])cc2)cn1 [5-(4-Nitrobenzyl)-picolinic acid, 5-(4-nitrobenzyl)picolinic acid]",–,177 mg/kg,–,–,–,39.8%,–,–
O=C(NCc1ccccc1)c1ccc(Cc2ccccc2)cn1 [5-Benzylpicolinic acid N-benzylamide],–,707 mg/kg,–,–,–,27.1%,–,–
Nc1ccc(Cc2ccc(C(=O)O)nc2)cc1 [5-(4-Aminobenzyl)-picolinic Acid],0.333 µM,–,–,–,–,–,–,–
